Holding throughout (format): biochemical
Assay [1] in a line: Lipoperoxidation (liposomes + AAPH, xylenol orange). Particulars: for protection against lipoperoxidation: active ingredient alone, 100 μg/ml (0.01%), 3 hours of reaction. The text has this:
The methodologies selected for planning and carrying out the tests for the antioxidant efficacy of the complex of the present invention aimed at reproducing the protective effect of membranes (lipids), DNA and proteins, and were fast screening methodologies, such as: • DPPH: the test is based on the reduction reaction of the diphenyl picryl hydrazyl (DPPH) free radical in ethanolic medium, with the raw materials or substances to be analyzed, wherein the DPPH radical is reduced by said substances, altering the tone and enabling the antioxidant protection to be measured. This is a simple assay, commonly used for screening substances, since it measures one of the main mechanisms of antioxidant action—proton donation for stabilization of the DPPH radical. • Lipoperoxidation: in this test, phosphatidylcholine liposomes, which structure resembles the cell membrane since phosphatidylcholine is one of the lipid components of cell membranes, are incubated with the AAPH radical, which is capable of promoting the oxidation of these membranes, forming lipid hydroperoxides. These hydroperoxides promote the oxidation of Fe^2+ to Fe^3+, which reacts with xylenol orange, forming a yellowish compound. The active ingredients incubated with the liposomes decrease the membrane oxidation, consequently decreasing the reaction with xylenol orange and the formation of color. This test provides a result for the % protection against lipoperoxidation, and is closer to the physiological situation, since it mimics the attack to cell membranes. • Protein Oxidation: this experiment uses BSA (bovine serum albumine) as a substrate and a hydroxyl radical generating system (Fenton reaction: H2O2+ iron), which can generate hydroperoxides in the presence of the protein, due to the oxidation of the amino acid side chain. These hydroperoxides promote the oxidation of Fe2+ to Fe3+, which reacts with xylenol orange, forming a yellowish compound. […]

Assay [2] can be described thus: DPPH free radical neutralization. The following applies: amount required to neutralize 50% of DPPH radicals.
Excerpt: This methodology is used to assess the IC-50 value, i.e., the amount of active ingredient required to neutralize 50% of the radicals formed in the reaction medium.
This assay is used to assess the active ingredient's ability to decrease the formation of free radicals. A specific radical (DPPH) produces a purple coloring in ethanolic solution. Antioxidant active ingredients capable of donating protons (H^+) decrease the formation of radicals, consequently decreasing the purple coloring.
Assay [3] can be described thus: ORAC hydrophilic and lipophylic method. The following applies: value printed for comparison with the samples.
Description: The system comprises a generating substance of free radical, the AAPH (2,2′-azobis (2-amidinopropane)dihydrochloride) and a fluorescent marker, fluorescein. The antioxidant substance presence in the reaction medium inhibits the decline of the induced fluorescence by the free radical.
The final value is calculated by the regression equation between the sample concentration and the area under the decline curve of fluorescence (AUC). Being expressed the result in micromoles equivalent of Trolox®/g of the sample. AUC=1+f1/f0+f2/f0++f3/f0+ . . . +fn/f0 • f0: initial fluorescence t=0 minutes • fn: fluorescence in each sample in t=n minutes
Hexane (1 mg/mL) was added in the individual samples, the samples were agitated during 3 minutes in vortex and centrifuged during two minutes in 700 g. The supernatant was removed, evaporated under nitrogen flow and analyzed as lipophylic portion. The soil body was analyzed as hydrophilic fraction.
The latter was solubilized in acetone:water (50% v/v), mixed in the ratio indicated for each one of the mixtures and appropriately diluted in 75 nM phosphate buffer pH 7.0. […] The reading was made each minute for one hour with wave length of excitement 485/20 nm and emission 528/20 nm (reading of plates—Multi Detection microplate reader SynergyBIOTEK). […]

Take `CC(C)=CCC/C(C)=C/C=C/C(C)=C/C=C/C(C)=C/C=C/C=C(C)/C=C/C=C(C)/C=C/C=C(\C)CCC=C(C)C` [Lycopene]: the protection against lipoperoxidation in assay [1] was 25.30%. Moreover, in assay [2], the “IC-50 (mg/ml)” value amounted to 0.208 mg/mL and the “IC-50 (μg/ml)” value came out at 208 µg/mL.
Turning to `Cc1c(C)c2c(c(C)c1O)CC[C@@](C)(CCC[C@H](C)CCC[C@H](C)CCCC(C)C)O2` [Tocopherol, alpha-tocopherol], in assay [1], the protection against lipoperoxidation worked out at 95.53%. For the same compound, in assay [1] (lipoperoxidation, between 60 and 70% protection, mixture 10+10+10 μg/ml), the “concentration of the active ingredient in isolation required for protection similar to the mixture, relative to its concentration in the mixture” value was “at least 5 times higher”. In assay [2], the “IC-50 (mg/ml)” value was found to be 0.019 mg/mL and the “IC-50 (μg/ml)” value was determined as 19 µg/mL.
On to `Cc1c(C)c2c(c(C)c1O)CCC(C)(C(=O)O)O2` (centres unmarked) [Trolox®], for which the “antioxidant activity of comparator” value in assay [3] was 400 µmol/g.

The record behind these values is patent publication US8383168B2, “Antioxidant complex, cosmetic and pharmaceutical compositions containing said complex and use of said complex” (Natura Cosmeticos S.A., priority 2008, dated 2013).
